Test results: patent US8912125B2, “Control of trifluralin-resistant weeds with dithiopyr” (Dow AgroSciences, LLC., priority 2010, dated 2014)

Columns and labels:
[1] = test system: ryegrass biotype SLR4 (without trifluralin resistance); experiment: Pre-emergence (simulated IBS) pot test, % survival of ryegrass biotype SLR4; type: in vivo; conditions: 5 weeks after herbicide application
Experimental: (§1) Five ryegrass biotypes with varying degrees of resistance to trifluralin (1251, 1216.1, 1252.6, 1252.2 and 1145.4) and two non-resistant biotypes (SLR4 and 1261.1) were tested. Dithiopyr was applied using a simulated incorporated by sowing (IBS) system for ryegrass and wheat.
(§2) Ryegrass: A set volume of seeds (50 seeds approx) were placed onto the surface of sandy potting soil in 0.55 L polyethylene pots. Dithiopyr was sprayed directly onto the ryegrass seed soil surface at rates of 250, 500 and 1000 grams active ingredient per hectare (g ai/ha). The seed and soil were then covered with a soil mixture to a depth of 5 mm (the soil mixture included 385 L peatmoss, 615 L coarse sand, 1024 g Ag. lime, 564 g hydrated lime, and 3.7 Kg Osmocote® Exact™ (Everris International B.V.; Geldermalsen, The Netherlands) with a pH of 6.3).
(§3) Herbicide application was performed using a laboratory boom sprayer equipped with T-jet fan nozzles at a speed of 1 ms^−1. Output from the sprayer was calibrated at 110 L ha^−1 at a pressure of 250 kPa. Using this testing procedure, volatilization losses were minimized by the immediate and even incorporation of each herbicide. The experiment was established as a randomized block design with three replications and was conducted outdoors during mid winter (July-August).
(§4) Herbicide effects on wheat and ryegrass seedlings were measured 5 weeks after spraying. Seedlings were considered emerged if they had reached the 2-leaf stage at this time. Survival % was recorded by comparing the surviving number of 2-3 leaved seedlings in the sprayed treatments to the […] (Tables 1 and 2).

[2] = test system: ryegrass biotype 1261.1 (without trifluralin resistance); experiment: Pre-emergence (simulated IBS) pot test, % survival of ryegrass biotype 1261.1; type: in vivo; conditions: 5 weeks after herbicide application
Experimental: as §1, §2, §3, §4

[3] = test system: ryegrass biotype 1251 (with trifluralin resistance); experiment: Pre-emergence (simulated IBS) pot test, % survival of ryegrass biotype 1251; type: in vivo; conditions: 5 weeks after herbicide application
Experimental: as §1, §2, §3, §4

[4] = test system: ryegrass biotype 1216.1 (with trifluralin resistance); experiment: Pre-emergence (simulated IBS) pot test, % survival of ryegrass biotype 1216.1; type: in vivo; conditions: 5 weeks after herbicide application
Experimental: as §1, §2, §3, §4

[5] = test system: ryegrass biotype 1252.6 (with trifluralin resistance); experiment: Pre-emergence (simulated IBS) pot test, % survival of ryegrass biotype 1252.6; type: in vivo; conditions: 5 weeks after herbicide application
Experimental: as §1, §2, §3, §4

[6] = test system: ryegrass biotype 1252.2 (with trifluralin resistance); experiment: Pre-emergence (simulated IBS) pot test, % survival of ryegrass biotype 1252.2; type: in vivo; conditions: 5 weeks after herbicide application
Experimental: as §1, §2, §3, §4

[7] = test system: ryegrass biotype 1145.4 (with trifluralin resistance); experiment: Pre-emergence (simulated IBS) pot test, % survival of ryegrass biotype 1145.4; type: in vivo; conditions: 5 weeks after herbicide application
Experimental: as §1, §2, §3, §4

[8] = test system: Correll wheat; experiment: Crop safety on wheat, pre-emergence (simulated IBS) pot test, % dry weight and % survival; type: in vivo, wheat (var. Correll); conditions: 5 weeks after application
Experimental: as §1
Wheat: Ten wheat seeds (var. Correll) were buried 1 cm deep. The herbicides were sprayed onto the soil surface and then the herbicide covered with another 5 mm of soil. This system of seed separation ensured crop selectivity
as §3, §4
In addition, wheat biomass was recorded by harvesting the plants and measuring dry weight to indicate crop safety. The dry weights from the treated plants were compared to the weight of untreated wheat and the percentage biomass calculated (Table 2).

Structure (SMILES)	% survival of ryegrass, Mean ([1]; 250 g ai/ha) [%]	% survival of ryegrass, Mean ([1]; 500 g ai/ha) [%]	% survival of ryegrass, Mean ([1]; 1000 g ai/ha) [%]	% survival of ryegrass, Mean ([2]; 250 g ai/ha) [%]	% survival of ryegrass, Mean ([2]; 500 g ai/ha) [%]	% survival of ryegrass, Mean ([2]; 1000 g ai/ha) [%]	% survival of ryegrass, Mean ([3]; 250 g ai/ha) [%]	% survival of ryegrass, Mean ([3]; 500 g ai/ha) [%]	% survival of ryegrass, Mean ([3]; 1000 g ai/ha) [%]	% survival of ryegrass, Mean ([4]; 250 g ai/ha) [%]	% survival of ryegrass, Mean ([4]; 500 g ai/ha) [%]	% survival of ryegrass, Mean ([4]; 1000 g ai/ha) [%]	% survival of ryegrass, Mean ([5]; 250 g ai/ha) [%]	% survival of ryegrass, Mean ([5]; 500 g ai/ha) [%]	% survival of ryegrass, Mean ([5]; 1000 g ai/ha) [%]	% survival of ryegrass, Mean ([6]; 250 g ai/ha) [%]	% survival of ryegrass, Mean ([6]; 500 g ai/ha) [%]	% survival of ryegrass, Mean ([6]; 1000 g ai/ha) [%]	% survival of ryegrass, Mean ([7]; 250 g ai/ha) [%]	% survival of ryegrass, Mean ([7]; 500 g ai/ha) [%]	also measured
CSC(=O)c1c(C(F)F)nc(C(F)(F)F)c(C(=O)SC)c1CC(C)C [Dithiopyr, S,S′-dimethyl 2-(difluoromethyl)-4-(2-methylpropyl)-6-(trifluoromethyl)-3,5-pyridinedicarbothioate]	0	0	0	0	0	0	0	0	0	0	0	0	0	0	0	0	0	0	0	0	% survival of ryegrass, Mean ([7]; 1000 g ai/ha): 0%; Survival (%) Mean ([8]; 250 g ai/ha): 82.2%; Survival (%) Mean ([8]; 500 g ai/ha): 60.0%; Survival (%) Mean ([8]; 1000 g ai/ha): 28.9%
CCCN(CCC)c1c([N+](=O)[O-])cc(C(F)(F)F)cc1[N+](=O)[O-] [Trifluralin, 2,6-dinitro-N,N-dipropyl-4-(trifluoromethyl)benzenamine]	2.9	0	0	5.6	0	1.1	97.7	68.2	27.3	40.4	19.1	9	33.8	13.1	26.3	29.1	13.9	3.8	100	100	% survival of ryegrass, Mean ([7]; 1000 g ai/ha): 14.1%
